This note sets out measurements from ChEMBL document CHEMBL1136020, “Synthesis and biological evaluation of an N10-Psec substituted pyrrolo[2,1-c][1,4]benzodiazepine prodrug” (Bioorg Med Chem Lett, 2002).

By IC50 is commonly meant the concentration needed to halve the response being measured. Low readings indicate higher potency, high ones lower potency. As usually defined, the GI50 is the concentration giving 50% growth inhibition. High values mean lower sensitivity of the cells, low ones greater sensitivity of the cells.

In test [1] the test system is CH1. Description: Tested for the cytotoxicity in CHIcisR ovarian cell line. It counts as functional, cell-based. The following applies: Homo sapiens, CH1cisR.
The subject of test [2] is A2780. Nature of the test: Tested for the cytotoxicity in A2780 ovarian cell line. It counts as functional, cell-based. The following applies: Homo sapiens.
Test [3] can be described thus: Ratio of cytotoxicity of cisR/normal cell line. Format: functional.
Test [4] relates to A2780. Nature of the test: Tested for the cytotoxicity in A2780cisR ovarian cell line (cisR denotes resistance to cisplatin). Format: functional, cell-based. The settings on record: Homo sapiens.
The subject of test [5] is CH1. Nature of the test: Tested for the cytotoxicity in CHI ovarian cell line. Format: functional, cell-based. The following applies: Homo sapiens.
The subject of another test is SK-OV-3. Nature of the test: Tested for the cytotoxicity in SKOV-3 ovarian cell line. It counts as functional, cell-based. The settings on record: Homo sapiens.
Test [6] deals with COLO 205. Description: Concentration required to decrease cell population by 50% on continuous exposure for 48 hr in Colon (COLO 205) cell line C. Format: functional. The settings on record: Homo sapiens, COLO 205, 48 h; read-out: LC50 (the source's name).
In test [7] the test system is SK-MEL-5. Nature of the test: Concentration required to restrict cell growth to 50% on continuous exposure for 48 hr in Melanoma (SK-MEL-5) cell line. Format: functional. The following applies: Homo sapiens, SK-MEL-5, 48 h.
In test [8] the test system is SNB-75. Description: Concentration required to restrict cell growth to 50% on continuous exposure for 48 hr in CNS (SNB-75) cell line. Format: functional. The following applies: Homo sapiens, SNB-75, 48 h.
The test system of test [9] is SNB-75. Description: Concentration required to decrease cell population by 50% on continuous exposure for 48 hr in CNS (SNB-75) cell line. Format: functional. The settings on record: Homo sapiens, SNB-75, 48 h; read-out: LC50 (the source's name).
Test [10] relates to MDA-MB-435. Description: Concentration required to restrict cell growth to 50% on continuous exposure for 48 hr in Breast (MDA-MB-435) cell line. It counts as functional. The settings on record: Homo sapiens, MDA-MB-435, 48 h.
Test [11] relates to COLO 205. Nature of the test: Concentration required to restrict cell growth to 50% on continuous exposure for 48 hr in Colon (CoIo 205) cell line. It counts as functional. The settings on record: Homo sapiens, COLO 205, 48 h.
In test [12] the test system is NCI-H522. Description: Concentration required to decrease cell population by 50% on continuous exposure for 48 hr in Lung ([…]) cell line. Format: functional. The following applies: Homo sapiens, NCI-H522, 48 h; read-out: LC50 (the source's name).
The subject of test [13] is NCI-H522. Nature of the test: Concentration required to restrict cell growth to 50% on continuous exposure for 48 hr in Lung ([…]) cell line. It counts as functional. The settings on record: Homo sapiens, NCI-H522, 48 h.
The subject of test [14] is SK-MEL-5. Nature of the test: Concentration required to decrease cell population by 50% on continuous exposure for 48 hr in Melanoma (SK-MEL-5) cell line. The settings on record: Homo sapiens, SK-MEL-5, 48 h; read-out: LC50 (the source's name). Format: functional.
The subject of test [15] is RXF 393. Nature of the test: Concentration required to decrease cell population by 50% on continuous exposure for 48 hr in Renal (RXF 393) cell line. Format: functional. The settings on record: Homo sapiens, RXF 393, 48 h; read-out: LC50 (the source's name).
For test [16], the system named is MDA-MB-435. Nature of the test: Concentration required to decrease cell population by 50% on continuous exposure for 48 hr in Breast (MDA-MB-435) cell line. It counts as functional. The following applies: Homo sapiens, MDA-MB-435, 48 h; read-out: LC50 (the source's name).
Test [17] has as its system RXF 393. Nature of the test: Concentration required to restrict cell growth to 50% on continuous exposure for 48 hr in Renal (RXF 393) cell line. It counts as functional. The settings on record: Homo sapiens, RXF 393, 48 h.
Test [18] in a line: Ratio of cytotoxicity of cisR/normal cell line; not active. It counts as functional.

“And” between values parts separate entries of the source, which are not always exact repeats. Identical values can stand only once. The source made the active and inactive calls. No cut-off for these calls is given here.

As for `COc1cc2c(cc1OC)C(=O)N1CCC[C@H]1C=N2`, the IC50 in the test with CH1 [1] was 110 nM; with A2780 [2], 64 nM; with A2780 [4] it was 155 nM; with CH1 [5], 82 nM; in the test on SK-OV-3, 1700 nM. Moreover, the Resistance factor in test [3] is 2.4 and 1.3.

As to `COc1cc2c(cc1OC)N(C(=O)OCCS(=O)(=O)c1ccccc1)[C@@H](O)[C@@H]1CCCN1C2=O`, the CC50 was 710 nM in the test on COLO 205 [6]; 9000 nM in the test on SNB-75 [9]; 1380 nM in the test on NCI-H522 [12]; 6780 nM in the test on SK-MEL-5 [14]; 2970 nM in the test with RXF 393 [15]; 4330 nM in the test on MDA-MB-435 [16]. In addition, the GI50 was determined as 290 nM in the test with SK-MEL-5 [7]; 720 nM with SNB-75 [8]; 450 nM in the test on MDA-MB-435 [10]; 190 nM in the test with COLO 205 [11]; 110 nM in the test with NCI-H522 [13]; 240 nM with RXF 393 [17]. In addition, the IC50 in the test with CH1 [1] amounted to 470 nM; with A2780 [2], 480 nM; in the test on A2780 [4], 490 nM; with CH1 [5], 400 nM; with SK-OV-3, 560 nM. In [3], the Resistance factor was 1 and 1.2.

`COc1cc2c(cc1OC)N(C(=O)OCCSc1ccccc1)[C@@H](O)[C@@H]1CCCN1C2=O`: the IC50 in the test with CH1 [1], in the test on A2780 [2], in the test on A2780 [4], in the test with CH1 [5] and in the test on SK-OV-3 was over 25000 nM throughout. Moreover, the Resistance factor entry in test [18] is “inactive”.
